PMC7044277 (Nature Communications, 2020)
“And” between values parts separate entries of the source, which are not always exact repeats. Equal values may be shown once.

Tests used:
[1] = biological target: T1, DRD4 (D4.4 variant) wild-type (Homo sapiens, UniProt P21917); test: Radioligand competition binding, [3H]-N-methylspiperone; settings: DRD4; [3H]-methylspiperone (0.8-1.0 nM); read-out: Ki
T1 sequence (P21917 1-419): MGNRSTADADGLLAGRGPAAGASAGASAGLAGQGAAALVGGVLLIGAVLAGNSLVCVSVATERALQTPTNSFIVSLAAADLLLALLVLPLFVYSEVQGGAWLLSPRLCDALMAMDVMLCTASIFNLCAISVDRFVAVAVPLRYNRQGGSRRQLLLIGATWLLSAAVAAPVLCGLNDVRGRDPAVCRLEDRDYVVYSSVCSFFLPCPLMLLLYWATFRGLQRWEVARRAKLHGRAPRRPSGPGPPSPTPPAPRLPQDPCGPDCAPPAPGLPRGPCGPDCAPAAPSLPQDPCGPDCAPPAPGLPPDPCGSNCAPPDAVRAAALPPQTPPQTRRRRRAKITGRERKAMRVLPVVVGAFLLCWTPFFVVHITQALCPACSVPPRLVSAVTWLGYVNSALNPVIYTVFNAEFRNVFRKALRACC

DRD2 (D2 long receptor) [2] = biological target: T2, DRD2 (D2 long receptor) (Homo sapiens, UniProt P14416); test: β-arrestin2 recruitment (Tango), HTLA cells; type: cell-based; settings: for response, Fig_S11e dose-response source data: replicate values
[3] = biological target: DRD2 (D2 long receptor) wild-type (Homo sapiens, UniProt P14416); test: Radioligand competition binding, [3H]-N-methylspiperone, HEK293T membranes; settings: DRD2; [3H]-methylspiperone (0.8-1.0 nM); read-out: Ki
DRD2 F1103.28L [4] = biological target: T3, DRD2 F1103.28L (Homo sapiens, UniProt P14416, F110L); test: Gαi/o-mediated cAMP inhibition (GloSensor), mutant; type: cell-based
T3 construct: expressed in transfected cells; host or cells: HEK293T (ATCC CRL-11268)

DRD2 F1103.28L [5] = biological target: T3, DRD2 F1103.28L; test: β-arrestin2 recruitment (Tango), mutant; type: cell-based
DRD2 F1103.28A [6] = biological target: T4, DRD2 F1103.28A (Homo sapiens, UniProt P14416, F110A); test: β-arrestin2 recruitment (Tango), mutant; type: cell-based; design: expressed in transfected cells; host or cells: HEK293T (ATCC CRL-11268)
DRD3 = DRD3 (Homo sapiens, UniProt P35462); test: β-arrestin2 recruitment (Tango); type: cell-based; settings: DRD3, Tango
DRD3 F1063.28A [7] = biological target: T5, DRD3 F1063.28A (Homo sapiens, UniProt P35462, F106A); test: cell-based; type: cell-based
DRD4 (D4.4 variant) [8] = biological target: T6, DRD4 (D4.4 variant) (Homo sapiens, UniProt P21917); test: β-arrestin2 recruitment (Tango); type: cell-based; settings: DRD4; Tango; read-out: EC50 ± SEM
T6 sequence (P21917 1-419): T1 sequence (P21917 1-419)

DRD2 F1103.28A [9] = biological target: T4, DRD2 F1103.28A; type: binding; design: expressed in transfected cells; host or cells: HEK293T (ATCC CRL-11268)
DRD2 F1103.28A [10] = biological target: T4, DRD2 F1103.28A; test: Gαi/o-mediated cAMP inhibition (GloSensor), mutant; type: cell-based; design: expressed in transfected cells; host or cells: HEK293T (ATCC CRL-11268)
DRD4 (D4.4 variant) [11] = biological target: T6, DRD4 (D4.4 variant); test: Gαi/o-mediated cAMP inhibition (GloSensor); type: cell-based; settings: DRD4; agonist, cAMP inhibition; read-out: EC50 ± SEM
DRD3 F1063.28A [12] = biological target: T5, DRD3 F1063.28A; test: biochemical; type: binding
DRD2 (D2 long receptor) [13] = biological target: T2, DRD2 (D2 long receptor); test: Gαi/o-mediated cAMP inhibition (GloSensor split-luciferase cAMP reporter), HEK293T; type: cell-based; settings: for response, Fig_S11d dose-response source data: replicate values;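 for all read-outs here: compounds applied 15 min at room temperature, then luciferin plus 400 nM isoproterenol to raise cAMP through endogenous β2-adrenergic receptors, luminescence read 15 min later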
DRD3 wild-type = DRD3 wild-type (Homo sapiens, UniProt P35462); test: Radioligand competition binding, [3H]-N-methylspiperone; settings: DRD3; [3H]-methylspiperone (0.8-1.0 nM); read-out: Ki
[14] = read-out: Emax relative to quinpirole response

T3 sequence (P14416 whole entry F110L): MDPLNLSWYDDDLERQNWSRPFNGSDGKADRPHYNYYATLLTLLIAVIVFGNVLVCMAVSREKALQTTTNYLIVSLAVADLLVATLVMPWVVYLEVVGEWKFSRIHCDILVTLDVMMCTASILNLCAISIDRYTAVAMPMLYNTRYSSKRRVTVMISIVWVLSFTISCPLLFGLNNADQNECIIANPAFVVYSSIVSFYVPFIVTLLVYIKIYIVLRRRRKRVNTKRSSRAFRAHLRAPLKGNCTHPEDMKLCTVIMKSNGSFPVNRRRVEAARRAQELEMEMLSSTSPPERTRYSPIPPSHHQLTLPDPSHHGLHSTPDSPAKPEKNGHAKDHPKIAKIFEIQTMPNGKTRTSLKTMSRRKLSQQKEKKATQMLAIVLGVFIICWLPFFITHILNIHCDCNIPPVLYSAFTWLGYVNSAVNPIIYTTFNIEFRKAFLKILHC
T4 sequence (P14416 whole entry F110A): as the sequence (P14416 whole entry F110L) above, with L110A counted along it
T5 sequence (P35462 whole entry F106A): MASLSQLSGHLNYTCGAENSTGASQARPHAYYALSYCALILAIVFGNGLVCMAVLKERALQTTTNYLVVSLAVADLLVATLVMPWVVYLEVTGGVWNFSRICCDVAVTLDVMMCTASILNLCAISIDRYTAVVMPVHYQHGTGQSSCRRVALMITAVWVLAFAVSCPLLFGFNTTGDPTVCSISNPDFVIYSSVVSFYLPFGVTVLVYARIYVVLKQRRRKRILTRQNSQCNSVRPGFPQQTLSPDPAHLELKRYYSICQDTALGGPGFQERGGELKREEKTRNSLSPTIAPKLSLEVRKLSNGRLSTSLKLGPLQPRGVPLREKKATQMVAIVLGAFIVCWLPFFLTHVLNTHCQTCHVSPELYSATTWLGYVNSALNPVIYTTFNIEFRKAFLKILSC
T2 sequence (P14416 whole entry): as the sequence (P14416 whole entry F110L) above, with L110F counted along it
Sequence of DRD3 (P35462 whole entry): as the sequence (P35462 whole entry F106A) above, with A106F counted along it
Sequence of DRD3 wild-type (P35462 whole entry): as the sequence (P35462 whole entry F106A) above, with A106F counted along it
Sequence of DRD2 (D2 long receptor) wild-type (P14416 whole entry): as the sequence (P14416 whole entry F110L) above, with L110F counted along it

CCOc1cccc2cc(C(C)NCC3(O)CCCCCC3)oc12 (stereo not shown) [O4LE7] was tested, and the Ki [1] was 4070 nM, the EC50 (DRD2 (D2 long receptor) [2]; DRD2, β-arrestin2 recruitment (Tango), read-out: EC50 ± SEM) was 44.6 ± 4.71 nM and the “response, Fig_S11e dose-response source data” value (DRD2 (D2 long receptor) [2]; Log[Drug] -6.52) was 70.7144. For the same molecule, the “response, Fig_S11e dose-response source data” value (DRD2 (D2 long receptor) [2]; Log[Drug] -7) was 60.0625 and 58.8888 and 58.966 and 44.6969 and 52.556 and 54.4002 and 47.2717 and 45.6897 and 52.8235, the “response, Fig_S11e dose-response source data” value (DRD2 (D2 long receptor) [2]; Log[Drug] -7.52) was 37.663 and 37.8279 and 34.2682 and 29.2235 and 29.8377 and 33.7069 and 31.0328 and 28.5097 and 31.1567 and the “response, Fig_S11e dose-response source data” value (DRD2 (D2 long receptor) [2]; Log[Drug] -8) was 19.0993 and 25.2494 and 16.3411 and 14.3144 and 11.2312 and 12.8766 and 17.2566 and 18.2263 and 16.5156. For the same molecule, the “response, Fig_S11e dose-response source data” value (DRD2 (D2 long receptor) [2]; Log[Drug] -8.52) was 6.955 and 10.6803 and 8.41 and 5.811 and 4.949 and 5.989 and 8.148 and 9.142 and 8.777, the “response, Fig_S11e dose-response source data” value (DRD2 (D2 long receptor) [2]; Log[Drug] -9) was 5.592 and 4.443 and 5.4634 and 4.207 and 4.266 and 4.232 and 6.141 and 5.2483 and 8.786 and the “response, Fig_S11e dose-response source data” value (DRD2 (D2 long receptor) [2]; Log[Drug] -9.52) was 4.527 and 4.325 and 4.4009 and 4.395 and 4.556 and 4.701 and 4.762 and 4.575 and 4.648. The “response, Fig_S11e dose-response source data” value (DRD2 (D2 long receptor) [2]; Log[Drug] -10) was 3.636 and 4.222 and 3.934 and 4.061 and 4.088 and 4.136 and 4.898 and 3.74 and 4.41, the “response, Fig_S11e dose-response source data” value (DRD2 (D2 long receptor) [2]; Log[Drug] -10.52) was 4.52 and 6.171 and 4.768 and 3.986 and 4.148 and 4.0514 and 3.608 and 3.803 and 4.57 and the “response, Fig_S11e dose-response source data” value (DRD2 (D2 long receptor) [2]; Log[Drug] -11) was 5.604 and 3.965 and 4.161 and 3.823 and 4.063 and 4.032 and 3.814 and 4.075 and 4.582. For the same molecule, the “response, Fig_S11e dose-response source data” value (DRD2 (D2 long receptor) [2]; Log[Drug] -11.52) was 3.3514 and 3.514 and 3.342 and 3.863 and 4.025 and 4.187 and 4.1 and 3.746 and 4.367, the “response, Fig_S11e dose-response source data” value (DRD2 (D2 long receptor) [2]; Log[Drug] -12) was 4.706 and 3.881 and 4.189 and 3.844 (2×) and 3.873 and 3.954 and 3.594 and 3.602 and the Emax (DRD2 (D2 long receptor) [2]; HTLA, read-out: Emax relative to quinpirole response, DRD2, Tango) was 71.8%. The Ki [3] was 1580 nM, the EC50 (DRD2 F1103.28L [4]; DRD2 F1103.28L (b138 head prints DRD2 F1063.28L)) was 3.61 ± 0.07 nM and the Emax (DRD2 F1103.28L [4]; read-out: Emax relative to quinpirole response, DRD2 F1103.28L) was 72.6%. For the same molecule, the EC50 (DRD2 F1103.28L [5]) was 504 nM, the Emax (DRD2 F1103.28L [5]; [14]) was 25.8% and the EC50 (DRD2 F1103.28A [6]) was over 10000 nM. For the same molecule, the EC50 (DRD3; read-out: EC50 ± SEM) was 803 ± 265 nM, the Emax (DRD3; [14]) was 32.3% and the EC50 (DRD3 F1063.28A [7]) was over 10000 nM. The EC50 (DRD4 (D4.4 variant) [8]) was over 10000 nM, the Ki (DRD2 F1103.28A [9]; DRD2 F1103.28A, read-out: pKi ± SEM (converted)) was 214 nM and the “affinity increase (binding enhanced), mutant vs wild type” value (DRD2 F1103.28A [9]; DRD2 Phe110^3.28Ala vs wild-type DRD2) was 7.52 fold. The EC50 (DRD2 F1103.28A [10]) was over 10000 nM, the EC50 (DRD4 (D4.4 variant) [11]) was over 10000 nM and the Ki (DRD3 F1063.28A [12]) was 417 nM. For the same molecule, the “affinity decreased, mutant vs wild type” value (DRD3 F1063.28A [12]; DRD3 Phe106^3.28Ala vs wild-type DRD3) was 1.75 fold, the EC50 (DRD2 (D2 long receptor) [13]; DRD2, agonist, Gαi/o-mediated cAMP inhibition, read-out: EC50 ± SEM) was 1.65 ± 1.05 nM and the “response, Fig_S11d dose-response source data” value (DRD2 (D2 long receptor) [13]; Log[Drug] -6.52) was 96.8634. The “response, Fig_S11d dose-response source data” value (DRD2 (D2 long receptor) [13]; Log[Drug] -7) was 95.598 and 91.4295 and 85.3505 and 88.3932 and 84.5729 and 79.5858 and 85.933 and 88.7083 and 90.2631, the “response, Fig_S11d dose-response source data” value (DRD2 (D2 long receptor) [13]; Log[Drug] -7.52) was 86.7896 and 85.152 and 83.291 and 74.147 and 71.7381 and 81.1478 and 90.9653 and 82.4555 and 87.421 and the “response, Fig_S11d dose-response source data” value (DRD2 (D2 long receptor) [13]; Log[Drug] -8) was 74.0608 and 77.7579 and 74.8548 and 59.6561 and 53.4646 and 60.8794 and 74.9823 and 74.9154 and 83.8097. For the same molecule, the “response, Fig_S11d dose-response source data” value (DRD2 (D2 long receptor) [13]; Log[Drug] -8.52) was 64.5825 and 59.1734 and 57.1139 and 43.5468 and 40.7239 and 43.8667 and 54.9367 and 67.0577 and 71.5884, the “response, Fig_S11d dose-response source data” value (DRD2 (D2 long receptor) [13]; Log[Drug] -9) was 50.9108 and 57.9824 and 64.8058 and 28.6043 and 24.1441 and 25.7626 and 68.5958 and 61.4569 and 59.9355 and the “response, Fig_S11d dose-response source data” value (DRD2 (D2 long receptor) [13]; Log[Drug] -9.52) was 29.7954 and 31.0609 and 40.6137 and 14.7533 and 4.309 and 6.285 and 34.6235 and 38.6026 and 45.7749. For the same molecule, the “response, Fig_S11d dose-response source data” value (DRD2 (D2 long receptor) [13]; Log[Drug] -10) was 30.912 and 22.4013 and 39.5964 and 4.779 and -4.2354 and 0.1871 and 39.589 and 34.2056 and 43.2671, the “response, Fig_S11d dose-response source data” value (DRD2 (D2 long receptor) [13]; Log[Drug] -10.52) was 36.5196 and 13.1215 and 30.515 and 10.8765 and -4.6118 and 7.301 and 39.8732 and 28.9894 and 33.9548 and the “response, Fig_S11d dose-response source data” value (DRD2 (D2 long receptor) [13]; Log[Drug] -11) was 25.0067 and 7.067 and 19.399 and -4.2354 and -19.0273 and 3.763 and 32.3665 and 18.8244 and 27.4345. For the same molecule, the “response, Fig_S11d dose-response source data” value (DRD2 (D2 long receptor) [13]; Log[Drug] -11.52) was 11.5335 and 13.2455 and 15.2305 and 7.489 and 4.214 and 9.484 and 32.4836 and 21.3489 and 42.8324, the “response, Fig_S11d dose-response source data” value (DRD2 (D2 long receptor) [13]; Log[Drug] -12) was 5.306 and -4.8923 and -12.733 and -1.883 and -0.2081 and -16.5056 and -3.2274 and 22.4524 and -2.0571 and the Emax (DRD2 (D2 long receptor) [13]; HEK-293T, read-out: Emax relative to quinpirole response, DRD2, cAMP inhibition) was 95.2%. For the same molecule, the Ki (DRD3 wild-type) was 240 nM.
